The subject of assay [1] is peripheral blood mononuclear cells (PBMCs) from healthy donors. Description: IFN production by R848-activated PBMCs, quantified with twINNE luciferase reporter cell line. In kind it is cell-based, human. The settings on record: Homo sapiens, PBMC; read-out: IC50 of anti-inflammatory activity (IFN production by activated PBMCs). The gist of the method:
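Healthy-donor PBMCs (4.10^6/mL, RPMI/10% FBS) were pre-treated with compound, then stimulated with R848 at 5 μg/mL for 24 h. Supernatants were put on twINNE cells, which carry luciferase under five ISREs, for 24 h, and Bright-Glo luminescence was read. IC50 values came from variable-slope dose-response fits.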
A general note: Reporter assays use an easily measured gene product as a stand-in for the process of interest.

In assay [2] the target is T1, Recombinant CXCR4 receptor (Homo sapiens, UniProt P61073).
T1 construct: host or cells: HEK-293 T cells
As to the kind of experiment: G.Validation fluorescence assay of CXCR4 receptor conformational changes in lipidic micelles SB2L4 and SB3L1. The assay is classed as biochemical. The settings on record: ligand 150 μM over basal state, 5 μM labelled CXCR4, 40 min. The text has this: G.Validation® assay is […] biotech proprietary fluorescence based assay that assesses conformational changes of a receptor upon activation/inactivation. Recombinant CXCR4 receptor is produced and purified from HEK-293 T cells using […] proprietary mixes. Receptor is then reconstituted in detergent buffers containing lipids mimicking the lipidic composition of dendritic cells (DC) and macrophages (SB2L4 and SB3L1). Thereafter, the receptor is labelled with a non-modifying probe allowing the detection of the activation state and conformational change of the receptor upon addition of a ligand. Indeed, the probe emission spectra maximum wavelength (Amax) shifts according to activation/inactivation of the receptor. Thus, kinetic of activation/inactivation of the receptor can be followed by monitoring Amax shift after addition of a ligand over time. Emission spectra were registered for 40 minutes after addition of each ligand. […] Activation/inactivation kinetics were also followed using an exemplary compound of formula (I), i.e.

For assay [3], the system named is irrelevant G-protein coupled receptor (GPCR). Description: G.Validation fluorescence assay on irrelevant GPCR control. The assay is classed as biochemical. The settings on record: SDF1α 15 μM, AMD3100 100 μM, Example 60 150 μM; SB3L1.
The next assay concerns Male C57BL/6 Rj mice. As to the kind of experiment: In vivo evaluation of CXCR4 antagonistic activity by mobilisation of blood cells. The settings on record: 30 mg/kg single i.p., 2:30 h after injection; shown also for neutrophils, monocytes, lymphocytes, eosinophils. Also on record: species or system mouse. How it is done: Male C57BL/6 Rj mice (7 weeks old) were obtained from Janvier (Le Genest-Saint-Isle, France). Mice were treated by a single intraperitoneal (i.p.) administration at timepoint 0 h. The experimental groups (n=10) were defined as follows: • Mice of group 1 were treated with vehicle only (0.9% NaCl aqueous solution) • Mice of group 2 were treated with AMD3100 (CXCR4 antagonist, Sigma-Aldrich, St Louis, USA) at 20 mg/kg (volume of 10 mL/kg) in 0.9% NaCl aqueous solution • Mice of group 3 were treated with an exemplary compound of formula (I), i.e. Example 60, at 30 mg/kg (volume of 10 mL/kg) in 0.9% NaCl aqueous solution
After 2:30 h, whole blood (at least 200 μl, max 1 mL) was collected in EDTA tubes before sacrifice by an intracardiac puncture under isoflurane anaesthesia and haematology parameters were determined the same day by laser flow cytometry, optical fluorescence and Laminar Flow Impedance™ using the ProCyte Dx hematology analyser (IDEXX, Eau Claire, USA). Differential leukocyte counts were performed to quantify specific immune cell types. Data are reported as total number of cells (K/μL), mean±S.E.M., as well as the statistical significance versus the vehicle control group using unpaired t-tests.

The structures appear in SMILES notation. Counter-ions that a name gives are not always drawn.

Data on 1 compound can be found in patent US20240018125A1, “CYCLIC ISOTHIOUREA DERIVATIVES AS CXCR4 MODULATORS” (ERMIUM THERAPEUTICS, priority 2020, published 2024).

T1 sequence (P61073 whole entry): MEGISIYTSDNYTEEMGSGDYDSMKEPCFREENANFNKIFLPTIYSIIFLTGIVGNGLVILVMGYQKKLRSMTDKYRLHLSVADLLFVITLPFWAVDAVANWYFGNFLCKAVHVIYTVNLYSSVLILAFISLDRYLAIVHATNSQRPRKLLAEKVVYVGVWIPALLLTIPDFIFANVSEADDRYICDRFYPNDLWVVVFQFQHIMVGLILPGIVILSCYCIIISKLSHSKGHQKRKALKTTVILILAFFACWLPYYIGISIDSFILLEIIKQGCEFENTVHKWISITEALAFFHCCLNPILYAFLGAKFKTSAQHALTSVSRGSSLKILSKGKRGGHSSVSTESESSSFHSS

As a reminder, the IC50 is the point on the concentration scale where inhibition reaches its midpoint. On to `Clc1ccc2c(c1)CN=C(SCCCCN1CCCC1)N2` [Example 60, 6-chloro-2-((4-(pyrrolidin-1-yl)butyl)thio)-1,4-dihydroquinazoline dihydrochloride], for which, in assay [1], the IC50 is at most 10 µM. Further, the “CXCR4 structural activation/inactivation, Amax shift in fluorescence” value in assay [2] is recorded as “blue shift”. The “irrelevant GPCR activation state, Amax shift in fluorescence” value in assay [3] was “Neither benchmark ligands SDF1α and AMD3100, nor Example 60 showed any effect”. Besides, the “numbers of white blood cells in the blood vs vehicle control” value with Male C57BL/6 Rj mice is given as “not increased”.
